Values after ≈ are worked out from the molar mass of the structure shown. Read-outs that look alike come from different tables or passages of the source.
Tests used:
[1] = cited from earlier work
[2] = Solubility in different dissolution media (HPLC); details: 25 °C, thermodynamic from solid
[3] = Dissolution rate in 1% aqueous sodium cholate solution (HPLC); assay type: physicochemical; details: 1% w/v sodium cholate, total 30 μg/mL
Protocol: Chromatogram recording was performed at 210 nm.

[4] = Particle size by light scattering; assay type: physicochemical
Protocol: The nanostructured PEA suspension obtained according to Example 1 was analyzed by light scattering to assess the size of the nanoparticles.

[5] = Morphology by scanning electron / optical microscopy; assay type: physicochemical; details: SEM or optical microscope
Protocol: Morphologically, scanning electron microscopy (SEM) analyses of both forms were performed.

CCCCCCCCCCCCCCCC(=O)NCCO [Raw PEA, Palmitoylethanolamide]
Solubility ([1]; methanol, ethanol, and isopropyl alcohol): poorly soluble | Solubility ([1]; water, oils, and most common organic solvents): practically insoluble | solubility at 24 h ([2]; demineralized water, water): < 0.1 µg/mL | solubility at 24 h ([2]; phosphate buffer, pH 7.4, aqueous buffer): 0.64 ± 0.05 µg/mL (≈ 2.14 µM) | solubility at 24 h ([2]; simulated intestinal fluid, pH 6.8, fassgf or other biorelevant): 0.22 ± 0.03 µg/mL (≈ 0.735 µM) | solubility at 24 h ([2]; simulated pulmonary fluid, pH 7.4, fassgf or other biorelevant): 0.8 ± 0.12 µg/mL (≈ 2.67 µM) | Dissolved PEA (dissolution rate) ([3]; 30 min): 3.31 ± 2.30 µg/mL | Dissolved PEA (dissolution rate) ([3]; 1 hour): 4.56 ± 1.02 µg/mL | Dissolved PEA (dissolution rate) ([3]; 2 hours): 6.15 ± 1.22 µg/mL | Dissolved PEA (dissolution rate) ([3]; 4 hours): 8.61 ± 0.68 µg/mL | Dissolved PEA (dissolution rate) ([3]; 6 hours): 9.31 ± 0.71 µg/mL | Size (nm ± SD) [4]: Macro and microscopic flakes | Morphology / obtainment of nanostructures [5]: irregular macroscopic agglomerates (a few tens of microns)

Source: patent US12728099B2, “Formulation to deliver lipophilic active ingredients” (priority 2020, dated 2026)
